Data from patent US20180193294A1, “Dehydroabietic acid (DHAA) derivatives for use as ion channel openers” (priority 2015, published 2018).
Entries after “also recorded” stand apart in the source; their conditions may differ.

Tests used:
Type in all cases: cell-based
[1] = molecular target: 3R Shaker K channel (Drosophila melanogaster, UniProt P08510, A359R/M356R); experiment: physchem; conditions: for compound-induced G(V) shift (mean±SEM) / G(V) shift: pH 7.4, Xenopus oocytes; for G(V) shift: Table 1; for Effects on K channel Mean ± SEM: Table 2, K channel expressed in Xenopus oocytes; for relative current amplitude: representative traces at voltage giving 10% of maximum conductance in control; for ΔG(V) of representative G(V) curves (single examples): pH 7.4, same cells as representative traces
Sequence of 3R Shaker K channel (P08510 whole entry M356R/A359R): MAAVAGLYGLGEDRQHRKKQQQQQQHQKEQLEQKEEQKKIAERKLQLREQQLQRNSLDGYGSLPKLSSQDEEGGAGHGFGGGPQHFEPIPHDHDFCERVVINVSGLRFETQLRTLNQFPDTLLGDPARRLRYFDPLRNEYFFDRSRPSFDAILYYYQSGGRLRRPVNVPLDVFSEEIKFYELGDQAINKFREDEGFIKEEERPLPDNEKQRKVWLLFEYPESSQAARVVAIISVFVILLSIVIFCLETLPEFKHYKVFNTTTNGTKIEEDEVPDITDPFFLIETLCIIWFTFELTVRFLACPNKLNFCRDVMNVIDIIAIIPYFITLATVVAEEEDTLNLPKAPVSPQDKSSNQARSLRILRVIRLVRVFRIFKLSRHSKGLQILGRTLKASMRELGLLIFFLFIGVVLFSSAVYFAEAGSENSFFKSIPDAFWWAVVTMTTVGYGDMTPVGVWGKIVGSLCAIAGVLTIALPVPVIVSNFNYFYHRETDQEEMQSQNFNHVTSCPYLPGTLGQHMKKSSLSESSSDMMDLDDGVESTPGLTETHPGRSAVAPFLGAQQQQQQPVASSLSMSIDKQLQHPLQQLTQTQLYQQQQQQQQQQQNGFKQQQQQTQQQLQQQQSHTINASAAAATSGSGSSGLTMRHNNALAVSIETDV
Text: A 3R Shaker K channel is a modified Shaker K channel where residues 356 and 359 are mutated to arginines.
(§1) All animal experiments were approved by the local Animal Care and Use Committee and followed international guidelines. A modified Shaker H4 channel^30, with removed N-type inactivation (ShH4IR)^31, here called the wild type (WT) channel, was expressed in oocytes. In addition, a modified 3R Shaker K channel where two introduced positive charged arginines (M356R and A359R) in addition to one native arginine (R362) makes the channel more sensitive to DHA^16, was expressed in oocytes and in a CHO—K1 stable cell line.
(§2) African clawed frogs (Xenopus laevis) were anesthetized with 1.4 g/L ethyl 3-aminobenzoate methanesulfonate salt (tricaine). After an incision through the abdomen a batch of oocytes were removed. Clusters of oocytes were separated by incubation for ˜1 h in a Ca-free O—R2 solution (in mM: 82.5 NaCl, 2 KCl, 5 HEPES, and 1 MgCl2; pH adjusted to 7.4 by NaOH) containing Liberase Blendzyme. The oocytes were then incubated at 8° C. in a modified Barth's solution (MBS; in mM: 88 NaCl, 1 KCl, 2.4 NaHCO3, 15 HEPES, 0.33 Ca(NO3)2, 0.41 CaCl2, and 0.82 MgSO4; pH adjusted to 7.6 by NaOH) supplemented with penicillin (25 U/ml), streptomycin (25 μg/ml), and sodium pyruvate (2.5 mM) 2-24 hours before injection. Fifty nl of cRNA (50 pg) were injected into each oocyte using a Nanoject injector (Drummond Scientific, Broomall, Pa.). Injected oocytes were kept at 8° C. in MBS until one day before electrophysiological recordings, when they were incubated at 16° C. All chemicals were supplied from Sigma-Aldrich (Stockholm, Sweden) if not stated otherwise.
(§3) All manual electrophysiological recordings were performed at room temperature (20-23° C.), using a GeneClamp 500B amplifier (for oocytes) or a Axopatch 200B amplifier (for manual patch clamp of CHO—K1 cells and DRG neurons) and a Digidata 1440A digitizer and pClamp 10 software (all from Molecular Devices, Inc., Sunnyvale, Calif., USA). Compounds were dissolved to 100 mM in 99.5% EtOH and stored at −20° C. Compounds were diluted in extracellular solution to the desired test concentration.
(§4) The oocyte was placed in a bath surrounded by 1K extracellular solution that contained (in mM): 88 NaCl, 1 KCl, 15 HEPES, 0.4 CaCl2, and 0.8 MgCl2, pH adjusted to 7.4 by NaOH (reaching a sodium concentration of ˜100 mM). Control solution was added to the bath with a gravity driven perfusion system. Compound solution was added to the bath manually with a syringe. Two glass microelectrodes were inserted into the oocyte using micromanipulators. […] All channels were closed when the potential was clamped to −80 mV and this voltage was set as the holding potential. Currents were evoked from the holding potential of −80 mV by 100-ms long, 5-mV steps ranging from −80 up to +50 mV (WT) and +70 mV (3R).
(§5) Conductance GK(V) was calculated as GK(V)=[…], (Eq. 1) where IK is the average current from the steady-state phase at the end of each 100-ms pulse, V is the membrane voltage, and Vrev is the reversal potential for K^+, (set to −80 mV for the oocytes, and calculated to be −89 mV for the CHO—K1 cells).
(§6) G(V)=A/(1+exp((V1/2−V)/s))^n (Eq. 2) where A is amplitude of the curve, V is the absolute membrane voltage, V1/2 is the midpoint, s is the slope and n is an exponent set to 4^17. The compound-induced G(V) shift was determined at the 10% level of the maximum conductance in control solution^17. The compound-induced G(V) shift in CHO—K1 was quantified by subtracting the control V1/2 from the compound V1/2 when n was set to 1.
(§7) Data for concentration and pH dependent G(V) shifts (ΔV) in oocytes were fit with a dose-response equation ΔV=ΔVmax/(1+c1/2/c), (Eq. 3) where Δvmax is the maximal shift, c1/2 is half maximal effective concentration/pKa value and c is the concentration.

[2] = tested on: HL-1 cells; experiment: Membrane potential and firing of spontaneously beating HL-1 cells, whole-cell current clamp; conditions: 10 uM
Experimental: All conventional chemicals were purchased from Sigma-Aldrich (Stockholm, Sweden). The DHAA derivatives were diluted in ethanol in a 100 mM stock solution. The stock solutions were stored at −20 t for further use.
The cell culture was done according to a previous study (Claycomb et al., Proceedings of the National Academy of Sciences of the United States of America 1998; 95:2979-2984). In brief, cells were grown on gelating fibronectin coated T75 flasks. They were maintained in Claycomb Medium which was supplemented with 10% fetal bovine serum, 2 mM L-glutamine, 0.1 mM noradrenaline, and 100 U/ml, 100 μg/ml penicillin-streptomycin. Enzymatic dissociation with 0.05% trypsin-EDTA was done after full confluence. Isolated cells were plated on fibronectin-gelatin coated plastic coverslips and used for recording.
Whole-cell current-clamp recordings were done on confluent cells at 35±1° C., using an Axopatch 200B amplifier (Molecular Devices, Sunnyvale, Calif.). Patch pipettes were fabricated from borosilicate capillary glass on a vertical pipette puller and had resistances of 3-5 MO. Data were stored on a computer through Digidata 1440A interface (Molecular Devices), and was analyzed with pCLAMP software (version 10.1, Molecular Devices). The bath solution contained the following (in mM): 140 NaCl, 5.4 KCl, 1 MgCl2, 1.8 CaCl2, 10 HEPES, and 10 glucose (pH adjusted to 7.4 with NaOH). The micropipettes were filled with a solution containing (in mM): 130 K-gluconate, 9 KCl, 8 NaCl, 1 MgCl2, 10 EGTA, 10 HEPES, and 3 Na2ATP (pH adjusted to 7.3 with KOH).

[3] = molecular target: WT Shaker K channel (Drosophila melanogaster, UniProt P08510, DEL6-46); experiment: physchem; conditions: 100 μM; for G(V) shift for WT: pH 7.4, Xenopus oocytes
Sequence of WT Shaker K channel (P08510 other isoform, or with tags, fused parts or gaps DEL6-46): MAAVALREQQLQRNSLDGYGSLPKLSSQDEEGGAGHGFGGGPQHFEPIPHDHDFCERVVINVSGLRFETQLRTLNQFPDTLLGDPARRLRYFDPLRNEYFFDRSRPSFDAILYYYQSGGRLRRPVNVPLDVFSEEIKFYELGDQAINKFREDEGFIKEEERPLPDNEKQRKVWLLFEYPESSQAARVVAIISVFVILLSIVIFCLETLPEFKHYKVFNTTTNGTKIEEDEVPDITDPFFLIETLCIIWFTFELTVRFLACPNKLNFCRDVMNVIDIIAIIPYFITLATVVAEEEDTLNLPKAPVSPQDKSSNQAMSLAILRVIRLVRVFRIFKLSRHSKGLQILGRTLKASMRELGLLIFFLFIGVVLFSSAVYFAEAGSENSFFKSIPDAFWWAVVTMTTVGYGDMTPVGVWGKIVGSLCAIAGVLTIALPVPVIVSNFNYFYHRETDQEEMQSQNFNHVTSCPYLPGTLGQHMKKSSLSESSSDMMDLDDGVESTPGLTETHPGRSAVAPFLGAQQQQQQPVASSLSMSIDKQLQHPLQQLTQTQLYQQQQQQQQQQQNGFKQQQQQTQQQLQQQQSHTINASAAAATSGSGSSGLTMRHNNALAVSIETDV
Text: A Shaker K channel is a Kv channel from the fruit fly Drosophila melanogaster. It is homologous to the human Kv1-type ion channels.
as §1, §2, §3, §4, §5, §6, §7

C=CCO/N=C1\CC2[C@](C)(C(=O)O)CCC[C@]2(C)c2ccc(C(C)C)cc21 (stereo partly shown) [Compound K8]
compound-induced G(V) shift (mean±SEM) ([1]; 100 μM): −17.8±1.9 mV
effect on G(V) shift / current compared with DHAA ([1]; C7-modified DHAA, 100 μM, pH 7.4): significantly increased the effect
G(V) shift ([1]; 100 μM): −17.8 mV
Effects on K channel Mean ± SEM [1]: −17.8 ± 1.9 mV
relative current amplitude ([1]; 100 μM, pH 7.4): 7.6 times
Effects on HL-1 cells Mean (membrane potential) [2]: −3.6 mV

CC(C)c1ccc2c(c1)CC[C@H]1[C@](C)(C(=O)O)CCC[C@]21C [DHAA, dehydroabietic acid]
Kd [1]: 89 µM
pKa ([1]; Drosophila melanogaster, from pH dependence of G(V) shift, 100 μM): 7.3
pKa ([3]; Drosophila melanogaster, from pH dependence of G(V) shift): 7.2

CC/C=C\C/C=C\C/C=C\C/C=C\C/C=C\C/C=C\CCC(=O)O [DHA]
G(V) shift for WT [3]: −6.0 mV

C=C[C@@]1(C)CC[C@H]2C(=CC[C@@H]3[C@]2(C)CCC[C@@]3(C)C(=O)O)C1 [Iso-PiMA, isopimaric acid, reference compound]
compound-induced G(V) shift (mean±SEM) ([1]; 100 μM): −15.9±1.8 mV
ΔG(V) of representative G(V) curves (single examples) ([1]; 100 μM): −20.0 mV
relative current amplitude ([1]; 100 μM, pH 7.4): 5.7 times
G(V) shift for WT [3]: much smaller effects on WT compared to the 3R Shaker K channel

C=C[C@@]1(C)C=C2CC[C@@H]3[C@](C)(CCC[C@@]3(C)C(=O)O)[C@H]2CC1 [PiMA, pimaric acid, reference compound]
compound-induced G(V) shift (mean±SEM) ([1]; 100 μM): −10.4±0.8 mV
ΔG(V) of representative G(V) curves (single examples) ([1]; 100 μM): −10.8 mV
relative current amplitude ([1]; 100 μM, pH 7.4): 2.4 times
G(V) shift for WT [3]: much smaller effects on WT compared to the 3R Shaker K channel

C[C@]1(C(=O)O)CCC[C@]2(C)c3cc(O)ccc3CC[C@@H]12 [PoCA, podocarpic acid, reference compound]
ΔG(V) of representative G(V) curves (single examples) ([1]; 100 μM): +0.1 mV
relative current amplitude ([1]; 100 μM, pH 7.4): 1.0 times
G(V) shift for WT [3]: not significantly different from the 3R Shaker K channel

CC(C)c1ccc2c(c1Br)CCC1[C@](C)(C(=O)O)CCC[C@]21C (stereo partly drawn) [Wu26, (1R,4aS)-8-bromo-7-isopropyl-1,4a-dimethyl-1,2,3,4,4a,9,10,10a-octahydrophenanthrene-1-carboxylic acid]
G(V) shift ([1]; 100 μM): −21.8 mV
Effects on K channel Mean ± SEM [1]: −21.8 ± 0.8 mV
Effects on HL-1 cells Mean (membrane potential) [2]: −4.7 mV

CO/N=C1\CC2[C@](C)(C(=O)O)CCC[C@]2(C)c2cc(Cl)c(C(C)C)cc21 (stereo partly drawn) [Wu69, (1R,4aS,E)-6-chloro-7-isopropyl-9-methoxyimino-1,4a-dimethyl-1,2,3,4,4a,9,10,10a-octahydrophenanthrene-1-carboxylic acid]
compound-induced G(V) shift (mean±SEM) ([1]; 100 μM): one of the most potent substances on the Shaker K 3R channel
G(V) shift ([1]; 100 μM): −28.1 mV
Effects on K channel Mean ± SEM [1]: −28.1 ± 1.7 mV
Effects on HL-1 cells Mean (membrane potential) [2]: −9.3 mV
effect on firing frequency of HL-1 cells [2]: reduced the frequency; also recorded: frequency is reduced
effect on membrane potential of HL-1 cells [2]: hyperpolarized the membrane potential; also recorded: interspike membrane potential is made more negative; also recorded: most potent substance on the HL-1 cells

C=CCO/N=C1\CC2[C@](C)(C(=O)O)CCC[C@]2(C)c2cc(C=C)c(C(C)C)cc21 (stereo partly drawn) [Wu120, (1R,4aS,E)-9-((allyloxy)imino)-7-isopropyl-1,4a-dimethyl-6-vinyl-1,2,3,4,4a,9,10,10a-octahydrophenanthrene-1-carboxylic acid]
G(V) shift ([1]; 100 μM): −26.1 mV

CC(C)c1cc2c(cc1C1CC1)[C@@]1(C)CCC[C@@](C)(C(=O)O)C1CC2=O (stereo partly drawn) [Wu121, (1R,4aS)-6-cyclopropyl-7-isopropyl-1,4a-dimethyl-9-oxo-1,2,3,4,4a,9,10,10a-octahydrophenanthrene-1-carboxylic acid]
G(V) shift ([1]; 100 μM): −6.7 mV

CO/N=C1\CC2[C@](C)(C(=O)O)CCC[C@]2(C)c2cc(C3CC3)c(C(C)C)cc21 (stereo partly drawn) [Wu122, (1R,4aS,E)-6-cyclopropyl-7-isopropyl-9-(methoxyimino)-1,4a-dimethyl-1,2,3,4,4a,9,10,10a-octahydrophenanthrene-1-carboxylic acid]
G(V) shift ([1]; 100 μM): −32.3 mV

C=CCO/N=C1\CC2[C@](C)(C(=O)O)CCC[C@]2(C)c2cc(C3CC3)c(C(C)C)cc21 (stereo partly drawn) [Wu123, (1R,4aS,E)-9-((allyloxy)imino)-6-cyclopropyl-7-isopropyl-1,4a-dimethyl-1,2,3,4,4a,9,10,10a-octahydrophenanthrene-1-carboxylic acid]
G(V) shift ([1]; 100 μM): −26.3 mV

CC(C)c1ccc2c(c1-c1ccccc1)CC[C@H]1[C@](C)(C(=O)O)CCC[C@]21C [Wu124]
G(V) shift ([1]; 100 μM): −0.4 mV

CC(C)c1ccc2c(c1C1CC1)CC[C@H]1[C@](C)(C(=O)O)CCC[C@]21C [Wu127]
G(V) shift ([1]; 100 μM): −9.6 mV

C[C@]1(C(=O)O)CCC[C@]2(C)c3ccccc3CCC12 (stereo partly drawn) [Wu129, (1S,4aS)-1,4a-dimethyl-1,2,3,4,4a,9,10,10a-octahydrophenanthrene-1-carboxylic acid]
G(V) shift ([1]; 100 μM): −5.1 mV

C[C@@]1(C(=O)O)CCC[C@]2(C)c3c(Cl)c(Cl)c(Cl)c(Cl)c3CCC12 (stereo partly drawn) [Wu133, (1R,4aS)-5,6,7,8-tetrachloro-1,4a-dimethyl-1,2,3,4,4a,9,10,10a-octahydrophenanthrene-1-carboxylic acid]
G(V) shift ([1]; 100 μM): −25.6 mV

C[C@]1(C(=O)O)CCC[C@]2(C)c3cc(Cl)ccc3CCC12 (stereo partly drawn) [Wu135, (1S,4aS)-6-chloro-1,4a-dimethyl-1,2,3,4,4a,9,10,10a-octahydrophenanthrene-1-carboxylic acid]
G(V) shift ([1]; 100 μM): −12.0 mV

C[C@]1(C(=O)O)CCC[C@]2(C)c3ccc(Cl)cc3CCC12 (stereo partly drawn) [Wu136, (1S,4aS)-7-chloro-1,4a-dimethyl-1,2,3,4,4a,9,10,10a-octahydrophenanthrene-1-carboxylic acid]
G(V) shift ([1]; 100 μM): −17.8 mV
